# Several values for one entry are separate records, joined by “and”; a condition that tells them apart may be missing. Equal values may be shown once.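 The compound was tested at five concentrations on cells cultured in 96-well plates, with a 48-hour exposure period. At the GI50, growth is halved. TGI marks complete inhibition of growth.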
# Test system: SW-620 colon
# Assay: growth of human tumour cells (NCI), 48 h
Structure (SMILES),GI50,TGI
COc1ccc(N(C)c2ncnc3occ(C)c23)cc1,< 10 nM,> 100 µM
O=C1NC(=Nc2ccccc2)S/C1=C\c1ccc2ncccc2c1,965 nM,> 25 µM
C/C1=C\CC[C@@]2(C)O[C@@H]2[C@H]2OC(=O)[C@@H](CN(C)C)[C@@H]2CC1,3760 nM,> 100 µM
C/C(=C\CCc1ccoc1)CC/C=C(\C)CCCC1=CC(=O)OC1,12100 nM,> 100 µM
NC(=NCCCOc1ccc(Cl)cc1)Nc1ccc(C(F)(F)F)cc1,1990 nM,5.99 µM

# Test system: A498 renal
# Assay: growth of human tumour cells (NCI), 48 h
Structure (SMILES),TGI,GI50
O=C(CCCn1ccnc1[N+](=O)[O-])NCCn1cncc1[N+](=O)[O-],> 100 µM,–
C[As](C)SC1OC(CO)C(O)C1O (stereo unspecified),3.62 µM,516 nM
CCCCCCCCCC/C=C/CC(=O)SCCNC(=O)CCNC(=O)[C@@H](O)C(C)(C)COP(=O)(O)OP(=O)(O)OCC1OC(n2cnc3c(N)ncnc32)C(O)C1OP(=O)(O)O (stereo partly specified),> 10 µM,–
OCCN1CN(CCO)CN(c2nc(N3CN(CCO)CN(CCO)C3)nc(N3CN(CCO)CN(CCO)C3)n2)C1,4.96 ng/mL,1.61 ng/mL
Cn1c(=O)c2c(nc(Nc3cc(=O)[nH]c(=O)[nH]3)n2Cc2ccccc2)n(C)c1=O,> 100 µM,7970 nM
COc1ccc2c(c1)CCC1C2CC[C@@]2(C)C1CC1=CC(COC(C)=O)C3C(=O)c4ccccc4C(=O)C3C12 (stereo partly specified),> 100 µM,> 100000 nM
C=C(F)C(=O)N1CCN(c2nc(OC[C@@H]3CCCN3C)nc3c2CCN(c2cccc4cccc(Cl)c24)C3)C[C@@H]1CC#N,2.86 µM,1390 nM
Cc1c2cccnc2c(C)c2c1c1cc(CO)ccc1n2C,0.243 µM,104 nM
CC/C(=C(/c1ccc(OCCN(C)C)cc1)c1ccc(OC(=O)CCCCC(=O)c2c(C)[nH]c(/C=C3\N=C(c4ccc[nH]4)C=C3OC)c2C)cc1)c1ccccc1,26.1 µM,12800 nM
CC[C@]12C=CCN3CC[C@@]4(c5ccc(OC)cc5N(C)[C@H]4[C@@](O)(C(=O)OC)[C@@H]1OC(=O)CCC[P+](c1ccccc1)(c1ccccc1)c1ccccc1)[C@@H]32,4.87 µM and 5.7 µM,1710 nM and 1970 nM
CC(=O)OC1Oc2ccccc2-c2oc(=O)c(-c3cc(=O)oc4cc(O)ccc34)cc21 (stereo unspecified),40.4 µM,13300 nM
Ic1ccc(Nc2nc3nonc3nc2Nc2ccc(I)cc2)cc1,0.418 µM,82.9 nM
CC(SC(C)C(=O)N/N=C/c1cccc(Cl)c1)C(=O)N/N=C\c1cccc(Cl)c1 (stereo unspecified),32.2 µM,14600 nM
CCOC(=O)/C=C/C(C(=O)/C=C/c1ccc(OC2CCCCO2)c(OC)c1)=C(O)\C=C\c1ccc(OC2CCCCO2)c(OC)c1 (stereo unspecified),35.7 µM,18300 nM
Cc1ccc(Cl)cc1Nc1nc(C(F)(F)F)ccc1C(=O)N1CCN(c2ccc(F)cc2)CC1,20.2 µM,6030 nM
O=C(Nc1ccc(OS(=O)(=O)c2ccccc2)cc1)C12CC3CC(CC(C3)C1)C2,48.7 µM,2040 nM
O=S(=O)([O-])c1ccc2c(c1)-c1nc-2nc2[n-]c(nc3nc(nc4[n-]c(n1)c1ccc(S(=O)(=O)[O-])cc41)-c1cc(S(=O)(=O)[O-])ccc1-3)c1ccc(S(=O)(=O)[O-])cc21.[Cu+2].[Na+],> 100 µM,> 100000 nM
CCN1CCN(c2ccc(Nc3cc(N(C)C(=O)Nc4c(Cl)c(OC)cc(OC)c4Cl)ncn3)cc2)CC1,0.062 µM,< 11.3 nM
CC(C)c1ccc(Nc2ccc3c(OCCCN4CCN(C)CC4)cccc3n2)cc1,36.8 µM,16400 nM
COc1ccc(N(C)c2ncnc3occ(C)c23)cc1,< 0.01 µM,< 10 nM
O=C1NC(=Nc2ccccc2)S/C1=C\c1ccc2ncccc2c1,> 18.4 µM,–
C/C1=C\CC[C@@]2(C)O[C@@H]2[C@H]2OC(=O)[C@@H](CN(C)C)[C@@H]2CC1,44.9 µM,25700 nM
C=C(C)[C@@]12OC3(/C=C/C=C/CCCCC)O[C@@H]1[C@@H]1[C@@H]4O[C@]4(CO)[C@@H](O)[C@]4(O)C(=O)C(C)=C[C@H]4[C@@]1(O3)[C@H](C)[C@H]2OC(=O)c1ccccc1,–,< 10 nM
C/C(=C\CCc1ccoc1)CC/C=C(\C)CCCC1=CC(=O)OC1,16.5 µM,1290 nM
NC(=NCCCOc1ccc(Cl)cc1)Nc1ccc(C(F)(F)F)cc1,6.08 µM,2080 nM
